Results taken from patent publication US20240174690A1, “ANNULATED 2-AMINO-3-CYANO THIOPHENES AND DERIVATIVES FOR THE TREATMENT OF CANCER” (BOEHRINGER INGELHEIM INTERNATIONAL GMBH, priority 2021, published 2024).

Experiments:
[1] = system: KRAS G12D-dependent Ba/F3 cells; experiment: Ba/F3 proliferation assay, KRAS G12D; format: cell-based; settings: Mus musculus, BaF3, 72 h, AlamarBlue
How it was run: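 IL-3-independent Ba/F3 lines driven by transduced KRAS G12C, G12D or G12V, with puromycin withdrawn about ten days before testing. Viability after compound treatment measured by AlamarBlue fluorescence in duplicate, and values derived by curve fitting.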

KRAS (G12C)::SOS1 = KRAS (G12C)::SOS1 (Homo sapiens (Human), UniProt P01116, C118S/C51S/C80L/G12C); experiment: KRAS::SOS1 AlphaScreen binding assay, KRAS G12C
How it was run: (§1)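 KRAS 1-169 (biotinylated avi-tag) with GST-SOS1 564-1049 and 10 µM GDP in PBS/0.1% BSA/0.05% Tween 20: WT and G13D 10 nM each with 10 nM SOS1; G12D 10 nM and G12C 7.5 nM with 5 nM SOS1. After 30 min, glutathione acceptor/streptavidin donor beads were added for 60 min at RT in the dark, then AlphaScreen read; 4-parameter IC50.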

KRAS (G12D)::SOS1 = KRAS (G12D)::SOS1 (Homo sapiens (Human), UniProt P01116, G12D); experiment: KRAS::SOS1 AlphaScreen binding assay, KRAS G12D
How it was run: as §1

Chain of KRAS (G12D)::SOS1 (P01116 other isoform, or with tags, fused parts or gaps G12D): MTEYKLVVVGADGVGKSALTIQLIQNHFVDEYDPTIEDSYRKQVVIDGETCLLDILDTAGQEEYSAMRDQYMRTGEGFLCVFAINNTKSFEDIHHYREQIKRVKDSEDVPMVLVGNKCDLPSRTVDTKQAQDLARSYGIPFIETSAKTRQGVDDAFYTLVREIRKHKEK
Chain of KRAS (G12C)::SOS1 (P01116 other isoform, or with tags, fused parts or gaps G12C/C51S/C80L/C118S): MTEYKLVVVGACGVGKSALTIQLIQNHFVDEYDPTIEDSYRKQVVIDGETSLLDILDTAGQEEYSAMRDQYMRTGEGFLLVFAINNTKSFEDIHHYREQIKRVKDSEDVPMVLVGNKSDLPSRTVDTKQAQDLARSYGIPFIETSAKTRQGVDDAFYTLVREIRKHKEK

Compound | IC50 [1] [nM] | IC50 (KRAS (G12C)::SOS1) [nM] | IC50 (KRAS (G12D)::SOS1) [nM]
C[C@H](Oc1cc([C@@H]2CCOC2)nc(-c2noc3c2CCC[C@@]32CCCc3sc(N)c(C#N)c32)n1)[C@@H]1CCCN1C [II-94] | 11 | 1 | 1
C[C@H](Oc1cc(C2COCCO2)nc(-c2noc3c2CCC[C@@]32CCCc3sc(N)c(C#N)c32)n1)[C@@H]1CCCN1C (stereo partly drawn) [II-95] | 81 | 2 | 2
C[C@H](Oc1cc(-c2cccc(CO)c2)nc(-c2noc3c2CCC[C@@]32CCCc3sc(N)c(C#N)c32)n1)[C@@H]1CCCN1C [II-97] | 198 | 3 | 13
C[C@H](Oc1cc(-c2ccn(C3CC3)n2)nc(-c2noc3c2CCC[C@@]32CCCc3sc(N)c(C#N)c32)n1)[C@@H]1CCCN1C [II-98] | 69 | 2 | 4
C[C@H](Oc1cc(N2CCC(C#N)C2)nc(-c2noc3c2CCC[C@@]32CCCc3sc(N)c(C#N)c32)n1)[C@@H]1CCCN1C (stereo partly drawn) [II-99] | 83 | 3 | 4
C[C@H](Oc1cc(-c2ccc(N)nc2)nc(-c2noc3c2CCC[C@@]32CCCc3sc(N)c(C#N)c32)n1)[C@@H]1CCCN1C [II-101] | 155 | 2 | 4
Cc1nc(-c2cc(O[C@@H](C)[C@@H]3CCCN3C)nc(-c3noc4c3CCC[C@@]43CCCc4sc(N)c(C#N)c43)n2)cs1 [II-103] | 21 | 2 | 2
CO[C@@H]1C[C@@H]([C@H](C)Oc2cc(-c3ccn(C4COC4)n3)nc(-c3noc4c3CCC[C@@]43CCCc4sc(N)c(C#N)c43)n2)N(C)C1 [II-107] | 19 | 2 | 4
C[C@H](Oc1cc(-c2ccn(C3COC3)n2)nc(-c2noc3c2CCC[C@@]32CCCc3sc(N)c(C#N)c32)n1)[C@@H]1CCCN1C [II-109] | 80 | 2 | 3
C[C@H](O)Cn1ccc(-c2cc(O[C@@H](C)[C@@H]3CCCN3C)nc(-c3noc4c3CCC[C@@]43CCCc4sc(N)c(C#N)c43)n2)n1 [II-112] | 42 | 1 | 1
COC(=O)c1ccc(-c2cc(O[C@@H](C)[C@@H]3CCCN3C)nc(-c3noc4c3CCC[C@@]43CCCc4sc(N)c(C#N)c43)n2)o1 [II-114] | 99 | 2 | 3
C[C@H](Oc1cc(-c2cn(C3CCOCC3)nn2)nc(-c2noc3c2CCC[C@@]32CCCc3sc(N)c(C#N)c32)n1)[C@@H]1CCCN1C [II-115] | 131 | 8 | 13
C[C@H](Oc1cc(-n2ccnc2)nc(-c2noc3c2CCC[C@@]32CCCc3sc(N)c(C#N)c32)n1)[C@@H]1C[C@@H](F)CN1C [II-120] | 149 | 2 | 9

Next, values leading:

IC50 [1] [nM] | IC50 (KRAS (G12C)::SOS1) [nM] | IC50 (KRAS (G12D)::SOS1) [nM] | Compound
120 | 5 | 14 | C[C@H](Oc1cc(-n2cccc3cnnc2-3)nc(-c2noc3c2CCC[C@@]32CCCc3sc(N)c(C#N)c32)n1)[C@@H]1CCCN1C [II-92]
43 | 3 | 3 | C[C@H](Oc1cc(-n2ccnc2Cl)nc(-c2noc3c2CCC[C@@]32CCCc3sc(N)c(C#N)c32)n1)[C@@H]1CCCN1C [II-93]
23 | 2 | 2 | C[C@H](Oc1cc(-c2ccn(C)n2)nc(-c2noc3c2CCC[C@@]32CCCc3sc(N)c(C#N)c32)n1)[C@@H]1CCCN1C [II-96]
56 | 3 | 6 | C[C@H](Oc1cc(-c2cn(C3COC3)nn2)nc(-c2noc3c2CCC[C@@]32CCCc3sc(N)c(C#N)c32)n1)[C@@H]1CCCN1C [II-100]
14 | 2 | 3 | C[C@H](Oc1cc(-n2ccc(C#N)n2)nc(-c2noc3c2CCC[C@@]32CCCc3sc(N)c(C#N)c32)n1)[C@@H]1CCCN1C [II-102]
78 | 2 | 5 | C[C@H](Oc1cc(-c2ccn3ncnc3c2)nc(-c2noc3c2CCC[C@@]32CCCc3sc(N)c(C#N)c32)n1)[C@@H]1CCCN1C [II-104]
37 | 2 | 2 | C[C@H](Oc1cc(-n2cncc3ccnc2-3)nc(-c2noc3c2CCC[C@@]32CCCc3sc(N)c(C#N)c32)n1)[C@@H]1CCCN1C [II-105]
107 | 4 | 9 | Cc1cn(-c2cc(O[C@@H](C)[C@@H]3CCCN3C)nc(-c3noc4c3CCC[C@@]43CCCc4sc(N)c(C#N)c43)n2)nn1 [II-106]
51 | 2 | 3 | C[C@H](Oc1cc(-n2ccc(Br)n2)nc(-c2noc3c2CCC[C@@]32CCCc3sc(N)c(C#N)c32)n1)[C@@H]1CCCN1C [II-110]
46 | 2 | 3 | C[C@H](Oc1cc(-c2cnsc2)nc(-c2noc3c2CCC[C@@]32CCCc3sc(N)c(C#N)c32)n1)[C@@H]1CCCN1C [II-111]
106 | 2 | 2 | C[C@H](Oc1cc(-n2cc(Cn3ccnc3)nn2)nc(-c2noc3c2CCC[C@@]32CCCc3sc(N)c(C#N)c32)n1)[C@@H]1CCCN1C [II-113]
30 | 2 | 2 | C[C@H](Oc1cc(-n2ccncc2=O)nc(-c2noc3c2CCC[C@@]32CCCc3sc(N)c(C#N)c32)n1)[C@@H]1CCCN1C [II-116]
36 | 1 | 2 | C[C@H](Oc1cc(-c2ccn(C[C@@H](C)O)n2)nc(-c2noc3c2CCC[C@@]32CCCc3sc(N)c(C#N)c32)n1)[C@@H]1CCCN1C [II-117]
133 | 2 | 4 | C[C@H](Oc1cc(-n2cc(C3CC3)nn2)nc(-c2noc3c2CCC[C@@]32CCCc3sc(N)c(C#N)c32)n1)[C@@H]1CCCN1C [II-118]
51 | 2 | 2 | C[C@H](Oc1cc(-n2ccc(-c3ccccn3)n2)nc(-c2noc3c2CCC[C@@]32CCCc3sc(N)c(C#N)c32)n1)[C@@H]1CCCN1C [II-119]
77 | 2 | 3 | COCc1cn(-c2cc(O[C@@H](C)[C@@H]3CCCN3C)nc(-c3noc4c3CCC[C@@]43CCCc4sc(N)c(C#N)c43)n2)nn1 [II-121]
132 | 2 | 4 | CNC(=O)c1cn(-c2cc(O[C@@H](C)[C@@H]3CCCN3C)nc(-c3noc4c3CCC[C@@]43CCCc4sc(N)c(C#N)c43)n2)nn1 [II-122]
93 | 2 | 8 | C[C@H](Oc1cc(-n2cc(-c3cccnc3)nn2)nc(-c2noc3c2CCC[C@@]32CCCc3sc(N)c(C#N)c32)n1)[C@@H]1CCCN1C [II-123]
58 | 2 | 2 | C[C@H](Oc1cc(-n2cc(Cn3cncn3)nn2)nc(-c2noc3c2CCC[C@@]32CCCc3sc(N)c(C#N)c32)n1)[C@@H]1CCCN1C [II-124]
